According to ChEMBL document CHEMBL3091447, “The effect of pyridyl substituents on the thermodynamics of porphyrin binding to G-quadruplex DNA” (Bioorg Med Chem, 2013):
Activity calls are given as the source filed them. The rule behind the calls is not given here.

Assays:
Homo sapiens [1] = species on record: Homo sapiens; experiment: Binding affinity to WT 27-mer Bcl-2 G-quadruplex DNA (unknown origin) at 5 uM by isothermal titration calorimetric assay
Homo sapiens [2] = species on record: Homo sapiens; experiment: Binding affinity to WT 27-mer Bcl-2 G-quadruplex DNA (unknown origin) at compound/DNA ratio 1 to 4 by CD spectral analysis
Homo sapiens [3] = species on record: Homo sapiens; experiment: Binding affinity to Bcl-2 G-quadruplex DNA (unknown origin) at compound/DNA ratio 2:1 by CD spectral analysis
Homo sapiens [4] = species on record: Homo sapiens; experiment: Binding affinity to WT 27-mer Bcl-2 G-quadruplex DNA (unknown origin) at 40 uM by electrospray ionization mass spectra analysis

Row | SMILES | Activity (Homo sapiens [1]) | Activity (Homo sapiens [2]) | Activity (Homo sapiens [3]) | Activity (Homo sapiens [4])
1 | C[n+]1ccc(-c2c3nc(c(-c4cc[n+](C)cc4)c4ccc([nH]4)c(-c4cc[n+](C)cc4)c4nc(cc5ccc2[nH]5)C=C4)C=C3)cc1 | Active | Active | Active | Active
2 | C[n+]1ccc(-c2c3nc(c(-c4cc[n+](C)cc4)c4ccc([nH]4)c(-c4cc[n+](C)cc4)c4ccc([nH]4)c(-c4cc[n+](C)cc4)c4nc2C=C4)C=C3)cc1 | – | – | Active | –
3 | C[n+]1ccc(-c2c3nc(cc4ccc(cc5nc(cc6ccc2[nH]6)C=C5)[nH]4)C=C3)cc1 | – | – | – | inactive

Further lines, results first:

Row | Activity (Homo sapiens [1]) | Activity (Homo sapiens [2]) | Activity (Homo sapiens [3]) | Activity (Homo sapiens [4]) | SMILES
4 | – | – | – | inactive | C[n+]1ccc(-c2c3nc(cc4ccc(cc5nc(c(-c6cc[n+](C)cc6)c6ccc2[nH]6)C=C5)[nH]4)C=C3)cc1
5 | Active | – | Active | Active | C[n+]1ccc(-c2c3nc(cc4ccc([nH]4)c(-c4cc[n+](C)cc4)c4nc(cc5ccc2[nH]5)C=C4)C=C3)cc1
